These results are taken from paper PMC10810264 (Microchemical journal : devoted to the application of …, 2023).

In brackets after ≈: the same amount, converted by molar mass. A value given as a limit tells only on which side of the number the result lay.

Assay [1] relates to anti-GEN scFv-AP fusion protein. Briefly: direct competitive chemiluminescent enzyme immunoassay. It is filed as binding, murine. The conditions noted are these: dcCLEIA; CR=[IC50(gentamicin)/IC50(analyte)]×100%.
Assay [2] has the same test system. In words: direct competitive ELISA. It is filed as binding, murine. The conditions noted are these: dcELISA, AP substrate p-nitrophenyl phosphate, OD 405 nm. (In general: An ELISA detects its analyte on a solid surface through an enzyme-linked reagent.)

In assay [1], `NC[C@H]1O[C@H](O[C@H]2[C@H](O)[C@@H](O[C@H]3O[C@H](CO)[C@@H](O)[C@H](N)[C@H]3O)[C@H](N)C[C@@H]2N)[C@H](O)[C@@H](O)[C@@H]1O` [kanamycin] displayed a Cross-reactivity of less than 0.10%.
With `CC1(C)S[C@@H]2[C@H](NC(=O)[C@H](N)c3ccccc3)C(=O)N2[C@H]1C(=O)O` [Ampicillin], the Cross-reactivity in assay [1] is reported as less than 0.10%.
Still for that read-out and setting: then `[H]/N=C(/N)N[C@H]1[C@H](O)[C@@H](O)[C@H](O[C@@H]2O[C@@H](C)[C@](O)(C=O)[C@H]2O[C@@H]2O[C@@H](CO)[C@H](O)[C@@H](O)[C@@H]2NC)[C@@H](N/C(N)=N\[H])[C@@H]1O` [Streptomycin], with less than 0.10%.
For orientation: IC50 means the concentration needed to halve the response being measured. `CNC(C)C1CCC(N)C(OC2C(N)CC(N)C(OC3OCC(C)(O)C(NC)C3O)C2O)O1` (stereo not shown) [Gentamicin]: the Cross-reactivity in assay [1] turned out to be 100%. In addition, the half-maximal inhibitory concentration (IC50) in assay [2] came out at 7.693 ng/mL (≈ 0.0161 µM).
Neomycin gave a Cross-reactivity in assay [1] of less than 0.10%.
`O=C(N[C@H](CO)[C@H](O)c1ccc([N+](=O)[O-])cc1)C(Cl)Cl` [Chloramphenicol]: in assay [1], the Cross-reactivity is reported as less than 0.10%.
